Biological target: EGFR (human) (UniProt P00533)
Sequence (P00533 whole entry, looked up): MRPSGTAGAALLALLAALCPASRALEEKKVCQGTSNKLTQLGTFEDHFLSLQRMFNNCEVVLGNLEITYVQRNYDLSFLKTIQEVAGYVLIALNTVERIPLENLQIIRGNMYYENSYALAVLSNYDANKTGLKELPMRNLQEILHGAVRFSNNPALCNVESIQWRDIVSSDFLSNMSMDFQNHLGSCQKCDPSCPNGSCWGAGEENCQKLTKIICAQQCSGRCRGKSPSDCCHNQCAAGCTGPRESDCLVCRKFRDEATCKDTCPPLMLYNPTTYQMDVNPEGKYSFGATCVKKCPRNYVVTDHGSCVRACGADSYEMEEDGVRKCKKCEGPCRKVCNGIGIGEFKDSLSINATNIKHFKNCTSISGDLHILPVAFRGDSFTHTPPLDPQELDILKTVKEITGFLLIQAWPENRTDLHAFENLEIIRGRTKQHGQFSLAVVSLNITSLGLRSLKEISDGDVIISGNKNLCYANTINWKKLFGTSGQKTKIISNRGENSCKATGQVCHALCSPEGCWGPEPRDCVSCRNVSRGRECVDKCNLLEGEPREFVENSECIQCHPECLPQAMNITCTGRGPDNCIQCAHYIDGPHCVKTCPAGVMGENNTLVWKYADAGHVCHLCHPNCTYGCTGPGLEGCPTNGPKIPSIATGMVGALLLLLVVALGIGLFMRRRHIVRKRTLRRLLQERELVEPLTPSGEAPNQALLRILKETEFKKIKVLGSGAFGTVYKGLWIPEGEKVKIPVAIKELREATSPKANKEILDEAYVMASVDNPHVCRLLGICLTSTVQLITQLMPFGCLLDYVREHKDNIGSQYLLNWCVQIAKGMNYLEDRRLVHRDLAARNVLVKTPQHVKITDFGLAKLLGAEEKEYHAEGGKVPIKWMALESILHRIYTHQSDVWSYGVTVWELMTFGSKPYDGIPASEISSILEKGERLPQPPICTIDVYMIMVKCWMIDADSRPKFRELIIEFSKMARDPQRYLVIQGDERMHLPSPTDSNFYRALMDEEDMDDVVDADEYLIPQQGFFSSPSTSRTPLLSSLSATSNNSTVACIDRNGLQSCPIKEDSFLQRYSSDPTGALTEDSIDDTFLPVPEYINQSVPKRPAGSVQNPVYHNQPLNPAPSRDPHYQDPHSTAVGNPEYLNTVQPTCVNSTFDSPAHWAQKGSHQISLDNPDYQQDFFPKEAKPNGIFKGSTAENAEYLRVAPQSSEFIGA

IC50	SMILES
> 50 µM	Cc1ccc(C(=O)Nc2ccccc2)c(O)c1
> 50 µM	Cc1ccc(C(=O)Nc2ccc(F)cc2F)c(O)c1
> 50 µM	Cc1ccc(C(=O)Nc2ccc(C(C)C)cc2)c(O)c1
> 50 µM	Cc1ccc(C(=O)Nc2ccc(Cl)cc2)c(O)c1
> 50 µM	O=C(Nc1ccc(F)cc1F)c1ccccc1O

Continued, compound first:

SMILES	IC50
O=C(Nc1ccc(F)cc1)c1cc(I)ccc1O	> 50 µM
O=C(Nc1ccc(Br)cc1)c1ccccc1O	> 50 µM
O=C(Nc1ccc(F)cc1)c1ccccc1O	> 50 µM
O=C(Nc1ccc(F)cc1)c1cc(Br)cc(Br)c1O	> 50 µM
O=C(Nc1ccccc1)c1ccccc1O	> 50 µM
